According to US12281149B2, “Modulators of G-protein coupled receptors” (priority 2021, dated 2025):
*1 amine or outer side, *2 acyl side, *3 side chain or, on linkers, in order; H or OH if unused. Where a SMILES comes first, the peptide text is derived from it. Side-chain parts run from the residue outwards. [ ]: non-standard residue; d: D form. The star is where a group is joined. Isobutyryl(2-(3-CN-5-F-Ph)) = CC(C)(C(=O)*)c1cc(F)cc(C#N)c1; C20 diacid = O=C(O)CCCCCCCCCCCCCCCCCCC(=O)*; γGlu = O=C(O)[C@H](CCC(=O)[*:2])N[*:1]; X22 = CC(C)(C(=O)*)c1ccc(C#N)cc1F; X79 = O=C1CC(C(=O)*)(c2ccccn2)CN1; X70 = CC[C@H](CN[*:1])C(=O)[*:2]; X13 = CC(C)(C(=O)*)c1cccc(F)c1F; X7 = CC(C)(C(=O)*)c1cccc(C#N)c1; AEEA = NCCOCCOCC(=O)O; Aib = CC(C)(N)C(=O)O; βAla = NCCC(=O)O

How the values were obtained:
Format in all cases: cell-based
GLP-1 receptor [1] = molecular target: T1, GLP-1 receptor (Homo sapiens, UniProt P43220); experiment: HitHunter cAMP assay, GLP-1 receptor; details: for Emax: CHO cells, cAMP, normalized to maximum signal from GLP-1 (high) and DMSO (low), read-out: Emax GLP-1R
Experimental: CAMP accumulation was measured in Chinese hamster ovary (CHO) cells stably expressing the human GLP-1 receptor or GIP receptor using the HitHunter CAMP Assay for Small Molecules Kit (Eurofins). Briefly, cells were grown in Ham's F12 Nutrient Mix with 10% FBS and lifted with Cell dissociation buffer, Enzyme free, PBS based (ThermoFisher). Cells were pelleted and resuspended in Hank's buffered saline solution with 10 mM Hepes and 625 μM 3-isobutyl-1-methylxanthine. The antibody reagent was then added to cells at a 1:2 ratio and 5 μL of mixture was seeded in 384-well small volume white assay plates, at 10,000 cells/well. Cells were then treated with 50 nl compound in DMSO using an ECHO 550 acoustic dispenser (Labcyte) in a 20-point dose response format in triplicate for 30 min. Cells were the lysed and detection reagents added according to the manufacturer's protocol. After overnight incubation, luminescence was measured using a Perkin Elmer Envision plate reader. Raw data was normalized to the maximum signal from GLP-1 or GIP (high) and DMSO (low). Dose response curves were analyzed using GraphPad Prism 9.0.

GIP receptor [2] = molecular target: T2, GIP receptor (Homo sapiens, UniProt P48546); experiment: HitHunter cAMP assay, GIP receptor; details: for Emax: CHO cells, cAMP, normalized to maximum signal from GIP (high) and DMSO (low), read-out: Emax GIP-1R
T2 sequence (P48546 22-466): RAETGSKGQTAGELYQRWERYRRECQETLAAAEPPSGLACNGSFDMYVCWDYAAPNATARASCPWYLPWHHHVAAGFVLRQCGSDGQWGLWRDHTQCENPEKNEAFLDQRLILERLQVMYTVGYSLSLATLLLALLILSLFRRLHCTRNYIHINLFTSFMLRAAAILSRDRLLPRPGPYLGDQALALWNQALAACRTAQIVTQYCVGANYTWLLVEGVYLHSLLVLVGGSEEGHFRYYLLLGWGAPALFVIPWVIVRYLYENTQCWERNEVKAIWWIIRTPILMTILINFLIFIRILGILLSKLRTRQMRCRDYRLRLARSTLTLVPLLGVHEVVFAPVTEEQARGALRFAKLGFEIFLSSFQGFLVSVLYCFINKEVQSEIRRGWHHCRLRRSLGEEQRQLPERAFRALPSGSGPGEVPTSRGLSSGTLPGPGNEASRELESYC

GIP receptor [3] = molecular target: T2, GIP receptor; experiment: PathHunter β-arrestin assay, GIP receptor; design: host or cells: PathHunter CHO-K1 GIPR β-Arrestin Cell Line
GLP-1 receptor [4] = molecular target: T1, GLP-1 receptor; experiment: PathHunter β-arrestin assay, GLP-1 receptor; design: host or cells: PathHunter CHO-K1 GLP1R β-Arrestin Cell Line
[5] = CHO cells stably expressing human GLP-1 receptor, cAMP accumulation, 30 min, read-out: EC50 GLP-1R
[6] = CHO cells stably expressing GIP receptor, cAMP accumulation, 30 min, read-out: EC50 GIP-1R
[7] = β-arrestin-2 recruitment, PathHunter CHO-K1 GIPR β-Arrestin Cell Line, 90 min at 37° C., normalized to GIP, read-out: GIPR β Arrestin EC50
[8] = β-arrestin-2 recruitment, PathHunter CHO-K1 GLP1R β-Arrestin Cell Line, 90 min at 37° C., normalized to GLP-1, read-out: GLP-1R β Arrestin EC50

T1 sequence (P43220 24-463): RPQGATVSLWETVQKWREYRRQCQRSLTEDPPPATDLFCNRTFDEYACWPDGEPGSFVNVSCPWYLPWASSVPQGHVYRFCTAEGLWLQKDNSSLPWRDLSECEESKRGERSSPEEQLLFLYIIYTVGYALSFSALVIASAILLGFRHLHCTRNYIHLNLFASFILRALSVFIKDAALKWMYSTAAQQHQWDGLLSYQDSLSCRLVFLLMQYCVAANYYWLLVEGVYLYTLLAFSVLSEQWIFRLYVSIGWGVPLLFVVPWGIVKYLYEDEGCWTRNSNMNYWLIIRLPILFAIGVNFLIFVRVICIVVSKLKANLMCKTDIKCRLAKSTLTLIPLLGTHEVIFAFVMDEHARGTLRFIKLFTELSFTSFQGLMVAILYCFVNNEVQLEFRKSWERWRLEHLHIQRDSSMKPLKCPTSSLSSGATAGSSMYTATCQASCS

SMILES	EC50 (GLP-1 receptor [1]; [5])	Emax (GLP-1 receptor [1])	EC50 (GIP receptor [2]; [6])	Emax (GIP receptor [2])	EC50 (GIP receptor [3]; [7])	EC50 (GLP-1 receptor [4]; [8])	EC50 (GLP-1 receptor [1])	EC50 (GIP receptor [2])	EC50 (GIP receptor [3])	EC50 (GLP-1 receptor [4])
CC[C@H](C)[C@H](NC(=O)[C@H](CC(C)C)NC(=O)[C@H](Cc1c[nH]c2ccccc12)NC(=O)[C@H](CCC(N)=O)NC(=O)[C@@H](NC(=O)[C@H](Cc1ccccc1)NC(=O)[C@H](C)NC(=O)[C@H](CCCCNC(=O)COCCOCCNC(=O)COCCOCCNC(=O)CC[C@H](NC(=O)CCCCCCCCCCCCCCCCCCC(=O)O)C(=O)O)NC(=O)[C@H](CCC(N)=O)NC(=O)[C@H](C)NC(=O)[C@@H](NC(=O)[C@H](CCCCN)NC(=O)[C@H](CC(=O)O)NC(=O)[C@H](CC(C)C)NC(=O)C(C)(C)NC(=O)[C@@H](NC(=O)[C@H](CO)NC(=O)[C@H](Cc1ccc(O)cc1)NC(=O)[C@H](CC(=O)O)NC(=O)[C@H](CO)NC(=O)[C@@H](NC(=O)[C@H](Cc1ccccc1)NC(=O)[C@@H](NC(=O)CNC(=O)[C@H](CCC(=O)O)NC(=O)CCNC(=O)C(C)(C)c1cccc(F)c1F)[C@@H](C)O)[C@@H](C)O)[C@@H](C)CC)[C@@H](C)CC)C(C)C)C(=O)N[C@@H](C)C(=O)NCC(=O)NCC(=O)N1CCC[C@H]1C(=O)N[C@@H](CO)C(=O)N[C@@H](CO)C(=O)NCC(=O)N[C@@H](C)C(=O)N1CCC[C@H]1C(=O)N1CCC[C@H]1C(=O)N1CCC[C@H]1C(=O)N[C@@H](CO)C(N)=O [Compound 147] ({X13-βAla}-EGTFTSDYSI[Aib]LDKIAQK([AEEA-AEEA-γGlu-C20 diacid])AFVQWLIAGGPSSGAPPPS-NH2)	0.1 to 1 nM	99%	0.1 to 1 nM	102%	< 1000 nM	> 1000 nM	–	–	–	–
CC[C@H](CNC(=O)C(C)(C)c1cc(F)cc(C#N)c1)C(=O)N[C@@H](CCC(=O)O)C(=O)NCC(=O)N[C@H](C(=O)N[C@@H](Cc1ccccc1)C(=O)N[C@H](C(=O)N[C@@H](CO)C(=O)N[C@@H](CC(=O)O)C(=O)N[C@@H](Cc1ccc(O)cc1)C(=O)N[C@@H](CO)C(=O)N[C@H](C(=O)NC(C)(C)C(=O)N[C@@H](CC(C)C)C(=O)N[C@@H](CC(=O)O)C(=O)N[C@@H](CCCCN)C(=O)N[C@H](C(=O)N[C@@H](C)C(=O)N[C@@H](CCC(N)=O)C(=O)N[C@@H](CCCCNC(=O)COCCOCCNC(=O)COCCOCCNC(=O)CC[C@H](NC(=O)CCCCCCCCCCCCCCCCCCC(=O)O)C(=O)O)C(=O)N[C@@H](C)C(=O)N[C@@H](Cc1ccccc1)C(=O)N[C@H](C(=O)N[C@@H](CCC(N)=O)C(=O)N[C@@H](Cc1c[nH]c2ccccc12)C(=O)N[C@@H](CC(C)C)C(=O)N[C@H](C(=O)N[C@@H](C)C(=O)NCC(=O)NCC(=O)N1CCC[C@H]1C(=O)N[C@@H](CO)C(=O)N[C@@H](CO)C(=O)NCC(=O)N[C@@H](C)C(=O)N1CCC[C@H]1C(=O)N1CCC[C@H]1C(=O)N1CCC[C@H]1C(=O)N[C@@H](CO)C(N)=O)[C@@H](C)CC)C(C)C)[C@@H](C)CC)[C@@H](C)CC)[C@@H](C)O)[C@@H](C)O [Compound 148] ({Isobutyryl(2-(3-CN-5-F-Ph))}-[X70]EGTFTSDYSI[Aib]LDKIAQK([AEEA-AEEA-γGlu-C20 diacid])AFVQWLIAGGPSSGAPPPS-NH2)	1 to 10 nM	99%	10 to 100 nM	101%	> 1000 nM	> 1000 nM	–	–	–	–
CC[C@H](C)[C@H](NC(=O)[C@H](CC(C)C)NC(=O)[C@H](Cc1c[nH]c2ccccc12)NC(=O)[C@H](CCC(N)=O)NC(=O)[C@@H](NC(=O)[C@H](Cc1ccccc1)NC(=O)[C@H](C)NC(=O)[C@H](CCCCNC(=O)COCCOCCNC(=O)COCCOCCNC(=O)CC[C@H](NC(=O)CCCCCCCCCCCCCCCCCCC(=O)O)C(=O)O)NC(=O)[C@H](CCC(N)=O)NC(=O)[C@H](C)NC(=O)[C@@H](NC(=O)[C@H](CCCCN)NC(=O)[C@H](CC(=O)O)NC(=O)[C@H](CC(C)C)NC(=O)C(C)(C)NC(=O)[C@@H](NC(=O)[C@H](CO)NC(=O)[C@H](Cc1ccc(O)cc1)NC(=O)[C@H](CC(=O)O)NC(=O)[C@H](CO)NC(=O)[C@@H](NC(=O)[C@H](Cc1ccccc1)NC(=O)[C@@H](NC(=O)CNC(=O)[C@H](CCC(=O)O)NC(=O)CCNC(=O)C(C)(C)c1ccc(C#N)cc1F)[C@@H](C)O)[C@@H](C)O)[C@@H](C)CC)[C@@H](C)CC)C(C)C)C(=O)N[C@@H](C)C(=O)NCC(=O)NCC(=O)N1CCC[C@H]1C(=O)N[C@@H](CO)C(=O)N[C@@H](CO)C(=O)NCC(=O)N[C@@H](C)C(=O)N1CCC[C@H]1C(=O)N1CCC[C@H]1C(=O)N1CCC[C@H]1C(=O)N[C@@H](CO)C(N)=O [Compound 149] ({X22-βAla}-EGTFTSDYSI[Aib]LDKIAQK([AEEA-AEEA-γGlu-C20 diacid])AFVQWLIAGGPSSGAPPPS-NH2)	0.1 to 1 nM	98%	1 to 10 nM	96%	< 1000 nM	> 1000 nM	–	–	–	–
CC[C@H](C)[C@H](NC(=O)[C@H](CC(C)C)NC(=O)[C@H](Cc1c[nH]c2ccccc12)NC(=O)[C@H](CCC(N)=O)NC(=O)[C@@H](NC(=O)[C@H](Cc1ccccc1)NC(=O)[C@H](C)NC(=O)[C@H](CCCCNC(=O)COCCOCCNC(=O)COCCOCCNC(=O)CC[C@H](NC(=O)CCCCCCCCCCCCCCCCCCC(=O)O)C(=O)O)NC(=O)[C@H](CCC(N)=O)NC(=O)[C@H](C)NC(=O)[C@@H](NC(=O)[C@H](CCCCN)NC(=O)[C@H](CC(=O)O)NC(=O)[C@H](CC(C)C)NC(=O)C(C)(C)NC(=O)[C@@H](NC(=O)[C@H](CO)NC(=O)[C@H](Cc1ccc(O)cc1)NC(=O)[C@H](CC(=O)O)NC(=O)[C@H](CO)NC(=O)[C@@H](NC(=O)[C@H](Cc1ccccc1)NC(=O)[C@@H](NC(=O)CNC(=O)[C@H](CCC(=O)O)NC(=O)CCNC(=O)C(C)(C)c1cccc(C#N)c1)[C@@H](C)O)[C@@H](C)O)[C@@H](C)CC)[C@@H](C)CC)C(C)C)C(=O)N[C@@H](C)C(=O)NCC(=O)NCC(=O)N1CCC[C@H]1C(=O)N[C@@H](CO)C(=O)N[C@@H](CO)C(=O)NCC(=O)N[C@@H](C)C(=O)N1CCC[C@H]1C(=O)N1CCC[C@H]1C(=O)N1CCC[C@H]1C(=O)N[C@@H](CO)C(N)=O [Compound 150] ({X7-βAla}-EGTFTSDYSI[Aib]LDKIAQK([AEEA-AEEA-γGlu-C20 diacid])AFVQWLIAGGPSSGAPPPS-NH2)	–	103%	–	91%	–	–	0.1 to 1 nM	0.1 to 1 nM	< 1000 nM	> 1000 nM
CC[C@H](C)[C@H](NC(=O)[C@H](CC(C)C)NC(=O)[C@H](Cc1c[nH]c2ccccc12)NC(=O)[C@H](CCC(N)=O)NC(=O)[C@@H](NC(=O)[C@H](Cc1ccccc1)NC(=O)[C@H](C)NC(=O)[C@H](CCCCNC(=O)COCCOCCNC(=O)COCCOCCNC(=O)CC[C@H](NC(=O)CCCCCCCCCCCCCCCCCCC(=O)O)C(=O)O)NC(=O)[C@H](CCC(N)=O)NC(=O)[C@H](C)NC(=O)[C@@H](NC(=O)[C@H](CCCCN)NC(=O)[C@H](CC(=O)O)NC(=O)[C@H](CC(C)C)NC(=O)C(C)(C)NC(=O)[C@@H](NC(=O)[C@H](CO)NC(=O)[C@H](Cc1ccc(O)cc1)NC(=O)[C@H](CC(=O)O)NC(=O)[C@H](CO)NC(=O)[C@@H](NC(=O)[C@H](Cc1ccccc1)NC(=O)[C@@H](NC(=O)CNC(=O)[C@H](CCC(=O)O)NC(=O)CCNC(=O)C1(c2ccccn2)CNC(=O)C1)[C@@H](C)O)[C@@H](C)O)[C@@H](C)CC)[C@@H](C)CC)C(C)C)C(=O)N[C@@H](C)C(=O)NCC(=O)NCC(=O)N1CCC[C@H]1C(=O)N[C@@H](CO)C(=O)N[C@@H](CO)C(=O)NCC(=O)N[C@@H](C)C(=O)N1CCC[C@H]1C(=O)N1CCC[C@H]1C(=O)N1CCC[C@H]1C(=O)N[C@@H](CO)C(N)=O (stereo partly drawn) [Compound 151] ({X79-βAla}-EGTFTSDYSI[Aib]LDKIAQK([AEEA-AEEA-γGlu-C20 diacid])AFVQWLIAGGPSSGAPPPS-NH2)	1 to 10 nM	101%	1 to 10 nM	105%	> 1000 nM	> 1000 nM	–	–	–	–
